Reference: patent EP2987533B1, “7-substituted piperazin-1-yl fluoroquinolone compounds, their use in the treatment of cancer, pharmaceutical compositions and a method for preparation” (priority 2014, dated 2016)

What was measured:
Assay in all cases: NCI one-dose SRB growth assay
Format in all cases: cell-based
CCRF-CEM = conditions: Homo sapiens; CCRF-CEM (Leukemia), 10^-5 M, 48 h; read-out: % Growth Inhibition (GI %)
SF-268 = conditions: Homo sapiens; SF-268 (CNS Cancer), 10^-5 M, 48 h; read-out: % Growth Inhibition (GI %)
OVCAR-4 = conditions: Homo sapiens; OVCAR-4 (Ovarian Cancer), 10^-5 M, 48 h; read-out: % Growth Inhibition (GI %)
Outline: (§1)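 Each cell line in the NCI ~60-line human tumour screen is exposed to compound at one concentration (10^-5M) for 48 h. The endpoint is SRB dye binding to cellular protein, and growth is given as a percentage of that in untreated cultures.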

MDA-MB-468 = conditions: Homo sapiens; MDA-MB-468 (Breast Cancer), 10^-5 M, 48 h; read-out: % Growth Inhibition (GI %)
Outline: as §1

KM12 = conditions: Homo sapiens; KM12 (Colon Cancer), 10^-5 M, 48 h; read-out: % Growth Inhibition (GI %)
Outline: as §1

LOX IMVI = conditions: Homo sapiens; LOX IMVI (Melanoma), 10^-5 M, 48 h; read-out: % Growth Inhibition (GI %)
Outline: as §1

SNB-75 = conditions: Homo sapiens; SNB-75 (CNS Cancer), 10^-5 M, 48 h; read-out: % Growth Inhibition (GI %)
Outline: as §1

K-562 = conditions: Homo sapiens, K562; K-562 (Leukemia), 10^-5 M, 48 h; read-out: % Growth Inhibition (GI %)
Outline: as §1

MOLT-4 = conditions: Homo sapiens; MOLT-4 (Leukemia), 10^-5 M, 48 h; read-out: % Growth Inhibition (GI %)
Outline: as §1

SN12C = conditions: Homo sapiens; SN12C (Renal Cancer), 10^-5 M, 48 h; read-out: % Growth Inhibition (GI %)
Outline: as §1

HCT-15 = conditions: Homo sapiens; HCT-15 (Colon Cancer), 10^-5 M, 48 h; read-out: % Growth Inhibition (GI %)
Outline: as §1

SK-OV-3 = conditions: Homo sapiens; SK-OV-3 (Ovarian Cancer), 10^-5 M, 48 h; read-out: % Growth Inhibition (GI %)
Outline: as §1

A498 = conditions: Homo sapiens; A498 (Renal Cancer), 10^-5 M, 48 h; read-out: % Growth Inhibition (GI %)
Outline: as §1

SR = conditions: Homo sapiens; SR (Leukemia), 10^-5 M, 48 h; read-out: % Growth Inhibition (GI %)
Outline: as §1

HL-60(TB) = conditions: Homo sapiens; HL-60(TB) (Leukemia), 10^-5 M, 48 h; read-out: % Growth Inhibition (GI %)
U251 = conditions: Homo sapiens, U-251; U251 (CNS Cancer), 10^-5 M, 48 h; read-out: % Growth Inhibition (GI %)
Outline: as §1

786-0 = conditions: Homo sapiens; 786-0 (Renal Cancer), 10^-5 M, 48 h; read-out: % Growth Inhibition (GI %)
Outline: as §1

A549/ATCC = conditions: Homo sapiens; A549/ATCC (Non-Small Cell Lung Cancer), 10^-5 M, 48 h; read-out: % Growth Inhibition (GI %)
Outline: as §1

SK-MEL-5 = conditions: Homo sapiens; SK-MEL-5 (Melanoma), 10^-5 M, 48 h; read-out: % Growth Inhibition (GI %)
Outline: as §1

OVCAR-5 = conditions: Homo sapiens; OVCAR-5 (Ovarian Cancer), 10^-5 M, 48 h; read-out: % Growth Inhibition (GI %)
Outline: as §1

OVCAR-8 = conditions: Homo sapiens; OVCAR-8 (Ovarian Cancer), 10^-5 M, 48 h; read-out: % Growth Inhibition (GI %)
Outline: as §1

NCI-H460 = conditions: Homo sapiens; NCI-H460 (Non-Small Cell Lung Cancer), 10^-5 M, 48 h; read-out: % Growth Inhibition (GI %)
T-47D = conditions: Homo sapiens, T47D; T-47D (Breast Cancer), 10^-5 M, 48 h; read-out: % Growth Inhibition (GI %)
Outline: as §1

BT-549 = conditions: Homo sapiens; BT-549 (Breast Cancer), 10^-5 M, 48 h; read-out: % Growth Inhibition (GI %)
Outline: as §1

NCI-H522 = conditions: Homo sapiens; NCI-H522 (Non-Small Cell Lung Cancer), 10^-5 M, 48 h; read-out: % Growth Inhibition (GI %)
Outline: as §1

NCI-H226 = conditions: Homo sapiens; NCI-H226 (Non-Small Cell Lung Cancer), 10^-5 M, 48 h; read-out: % Growth Inhibition (GI %)
Outline: as §1

Row | Structure (SMILES) | inhibition at 10 µM (CCRF-CEM) [%] | inhibition at 10 µM (SF-268) [%] | inhibition at 10 µM (OVCAR-4) [%] | inhibition at 10 µM (KM12) [%] | inhibition at 10 µM (LOX IMVI) [%] | inhibition at 10 µM (SNB-75) [%] | inhibition at 10 µM (K-562) [%] | inhibition at 10 µM (MOLT-4) [%] | inhibition at 10 µM (SN12C) [%] | inhibition at 10 µM (HCT-15) [%] | inhibition at 10 µM (SK-OV-3) [%] | inhibition at 10 µM (A498) [%] | inhibition at 10 µM (HL-60(TB)) [%] | inhibition at 10 µM (U251) [%] | inhibition at 10 µM (786-0) [%] | inhibition at 10 µM (A549/ATCC) [%] | inhibition at 10 µM (SK-MEL-5) [%] | inhibition at 10 µM (OVCAR-5) [%] | inhibition at 10 µM (NCI-H460) [%] | inhibition at 10 µM (T-47D) [%] | further results
1 | CCn1cc(C(=O)O)c(=O)c2cc(F)c(N3CCN(S(=O)(=O)c4c(C)cc(C)cc4C)CC3)cc21 [Compound 6a] | 18.2 | 16.3 | < 10 | 12.8 | 38.7 | 29.2 | 20.1 | 24.1 | 11.5 | 28.5 | < 10 | 21.1 | 26.9 | 16.6 | < 10 | 22 | 20.5 | 11.4 | 17.2 | 25.9 | inhibition at 10 µM (MDA-MB-468): 19.7%; inhibition at 10 µM (SR): 35.5%; inhibition at 10 µM (OVCAR-8): 18.5%; inhibition at 10 µM (BT-549): 26.3%; inhibition at 10 µM (NCI-H522): 13.5%; inhibition at 10 µM (NCI-H226): 23.1%
2 | O=C(O)c1cn(C2CC2)c2cc(N3CCN(S(=O)(=O)c4ccc(Cl)c(Cl)c4)CC3)c(F)cc2c1=O [Compound 3b] | 83.1 | 80.4 | 79.2 | 85.4 | 98.8 | 86.8 | 83.1 | 96.6 | 89.6 | 93.8 | 73.2 | 86.2 | > 100 | 87.6 | 72.2 | 94 | 97.9 | 87.5 | 94.2 | 83.7 | inhibition at 10 µM (MDA-MB-468): > 100%; inhibition at 10 µM (SR): > 100%; inhibition at 10 µM (OVCAR-8): 94.5%; inhibition at 10 µM (BT-549): > 100%; inhibition at 10 µM (NCI-H522): > 100%; inhibition at 10 µM (NCI-H226): 58.6%
3 | O=c1[nH]cc(F)c(=O)[nH]1 [Compound 5-FU, 5-fluorouracil, reference compound] | 57.1 | 59 | 59.4 | 40.7 | 30.4 | 65.9 | 42.3 | 43.1 | 54 | 26.5 | 77.5 | > 100 | 47.9 | 50.3 | 48.7 | 34.2 | 33.7 | 44.3 | 13 | 56.7 | inhibition at 10 µM (SR): 24.8%; inhibition at 10 µM (BT-549): 37.8%; inhibition at 10 µM (NCI-H522): 58%; inhibition at 10 µM (NCI-H226): 69.5%
4 | CCn1cc(C(=O)O)c(=O)c2cc(F)c(N3CCN(S(=O)(=O)c4ccc(Cl)cc4)CC3)cc21 [Compound 1a] | > 100 | 77.3 | 62.3 | 95.7 | 80.1 | 58.2 | 78.6 | 76.4 | 88.4 | 84.3 | 59.2 | > 100 | 91 | 88 | 76.3 | 84.4 | 73.4 | 48.1 | 94.1 | 58.9 | inhibition at 10 µM (OVCAR-8): 87.4%; inhibition at 10 µM (BT-549): 87.4%; inhibition at 10 µM (NCI-H522): 91.6%; inhibition at 10 µM (NCI-H226): 39.9%
5 | CCn1cc(C(=O)O)c(=O)c2cc(F)c(N3CCN(S(=O)(=O)c4cccc5ccccc45)CC3)cc21 [Compound 7a] | 87.9 | 83.6 | 76.2 | 88.3 | > 100 | 85.9 | 84.6 | 91.6 | 88.1 | 88.9 | 84.4 | > 100 | > 100 | 85.8 | 75.7 | 96.2 | > 100 | 84.5 | 92 | 94.7 | inhibition at 10 µM (MDA-MB-468): 95.2%; inhibition at 10 µM (SR): 97.8%; inhibition at 10 µM (OVCAR-8): 91.6%; inhibition at 10 µM (BT-549): > 100%; inhibition at 10 µM (NCI-H522): > 100%; inhibition at 10 µM (NCI-H226): 78.1%
